Key:
[1] = tested on: promastigotes of L. amazonensis; assay: Leishmanicidal activity assay (Alamar Blue), promastigotes; assay type: cell-based, Leishmania amazonensis
Protocol: (§1) To carry out the experiments, promastigotes of Leishmania amazonensis (MHOM/BR/77/LTB0016) and L. donovani (MHOM/IN/90/GE1F8R) and epimastigotes of Trypanosoma cruzi (Y strain) were employed. Leishmania species were cultured in Schneider’s medium (Sigma-Aldrich, Madrid, Spain), supplemented with 10% fetal bovine serum (VWR, Biowest, Nuaillé, France) and incubated at 26 °C. RPMI 1640 medium (Gibco, Thermo Fisher, Madrid, Spain) with or without phenol red was also used to culture the parasites at the same temperature. Epimastigotes of T. cruzi were cultured in liver infusion tryptose (LIT) medium supplemented with 10% fetal bovine serum at 26 °C. A cytotoxicity assay was performed using a murine macrophage cell line J774A.1 (ATCC TIB-67), which was maintained in Dulbecco’s modified Eagle’s medium (Gibco, Thermo Fisher, Madrid, Spain) supplemented with 10% of fetal bovine serum at 37 °C in a 5% CO2 atmosphere.
(§2) With the objective of determining the antiparasitic activity of the compounds isolated from G. abies-marina, leishmanicidal activity assays were performed against promastigote stages of L. amazonensis and L. donovani, as well as a trypanocidal activity assay performed against epimastigote stages of T. cruzi. In both parasites, a colorimetric assay was used based on the Alamar Blue reagent (Life Technologies, Madrid, Spain) as previously described by Bethencourt-Estrella et al. (2021).
(§3) In a sterile 96 well-plate, serial dilutions of the extracts, fractions or compounds isolated from G. abies-marina were performed in RPMI 1640 medium without phenol red (in the case of Leishmania spp.) or in LIT (in the case of T. cruzi) with a final volume of 100 µL. Parasites were added to wells to reach a concentration of 5 × 10^5 (Leishmania spp.) or 2.5 × 10^5 (T. cruzi) until a final volume of 200 µL/well. Next, 10% of Alamar Blue® was placed into each well and the plate was incubated for 72 h at 26 °C. Finally, the fluorescence of each well was measured using an EnSpire® Multimode Plate Reader (Perkin Elmer, Madrid, Spain) (544 nm excitation, 590 nm emission) and the concentration that inhibits 50% of the parasite population (IC50) was calculated using a non-linear regression analysis with 95% confidence limits. Miltefosine and benznidazol were used as reference drugs. To analyze the data and calculate the IC50, SigmaPlot 12.0 statistical analysis software (Systat Software Inc, Palo Alto, CA, USA) was used.
(§4) The 50% inhibitory concentration (IC50) and 50% cytotoxic concentration (CC50) values were obtained using Sigma Plot 12.0 statistical analysis software (Systat Software) and calculated using a non-linear regression analysis with 95% confidence limits. Leishmanicidal and trypanocidal activity assays, as well as cytotoxicity assays, were performed three times on different days, and the results were expressed as means ± standard deviations. The analysis of variance was determined using a one-way ANOVA using the GraphPad.PRISM® 9.0 software program (GraphPad Software, San Diego, CA, USA). Differences at p < 0.05 were considered statistically significant.

[2] = tested on: promastigotes of L. donovani; assay: as above; assay type: cell-based, Leishmania donovani
Protocol: as §1, §2, §3, §4

[3] = tested on: epimastigotes of Trypanosoma cruzi; assay: Trypanocidal activity assay (Alamar Blue), epimastigotes; assay type: cell-based
Protocol: as §1, §2, §3, §4

[4] = Cytotoxicity assay (Alamar Blue); assay type: cell-based; settings: mouse, J774A.1 murine macrophage cell line, J774A.1, 24 h, read-out: Cytotoxicity CC50, murine macrophages
Protocol: as §1
In a sterile 96-well plate, murine macrophages of the cell line J774A.1 were placed to reach an amount of 10^5 cells per well using RPMI 1640 medium without phenol red. After murine macrophage attachment, 50 µL serial dilutions of the isolated compounds were added in each well until reaching a final volume of 100 µL. Next, 10% of Alamar Blue® was placed into each well and the plate was incubated for 24 h at 37 °C with a 5% CO2 atmosphere. Finally, the plates were analyzed using an EnSpire® Multimode Plate Reader (PerkinElmer, Madrid, Spain), as described in the previous section, and the 50% cytotoxic concentration (CC50) values were calculated.
as §4

[5] = tested on: intracellular amastigotes of L. amazonensis; assay: In vitro effect against amastigote stage in infected macrophages; assay type: cell-based, Leishmania amazonensis
Protocol: To determine the in vitro effect against the amastigote stage of L. amazonensis, murine macrophages were infected. In a sterile 96 well-plate, macrophages of the J774A.1 cell line were placed in RPMI 1640 to reach 10^5 macrophages per well. This plate was incubated at 37 °C in a 5% CO2 atmosphere. After one hour of incubation, 100 µL of stationary-phase promastigotes of 7-day-old culture was added in a 10:1 ratio (10^6 parasites per well) and the plates were re-incubated at 37 °C for 24 h to achieve maximum infection. Then, the wells were washed with fresh medium to remove non-phagocytosed promastigotes. The infected macrophages were treated with the compounds isolated for 24 h. Then, the medium was removed carefully to be replaced by 30 μL of 0.05% SDS and the plate was shaken for 30 s. After broke macrophages, 170 μL of Schneider’s medium was added to each well to give a final volume of 200 μL and 20 μL of Alamar Blue® was added to the plate being incubated at 26 °C for 72 h, as described by López-Arencibia et al. (2017). After 72 h of incubation, the plates were analyzed using the same protocol for the promastigote test.

[6] = tested on: L. amazonensis promastigotes; assay: ATP level analysis (Cell Titer-Glo); assay type: cell-based, Leishmania amazonensis; settings: IC90 of compound, 24 h
Protocol: (§5) To study the mechanism of cell death induced in parasites by compounds isolated from Gongolaria abies-marina, a common step was carried out to perform the following five experiments. The promastigotes of Leishmania spp. and epimastigotes of T. cruzi were incubated at the IC90 levels of the compounds (previously calculated) for 24 h at 26 °C. After incubation, the parasites were centrifuged at 3000 rpm for 10 min at 4 °C. The pellets were resuspended following the manufacturer’s instructions for each kit. After the incubation of promastigotes and epimastigotes of the parasites with the IC90 of the compounds, the changes in ATP levels were measured using a Cell Titer-Glo® Luminescent Cell Viability Assay (Promega, WI, USA). The assay was carried out in a white 96-well plate following the manufacturer’s instructions, as previously described by Cartuche et al. (2020). The luminescence was measured using an EnSpire® Multimode Plate Reader (PerkinElmer, Madrid, Spain).

[7] = tested on: L. donovani promastigotes; assay: ATP level analysis (Cell Titer-Glo); assay type: cell-based, Leishmania donovani; settings: IC90 of compound, 24 h
Protocol: as §5

T. cruzi epimastigotes [8] = assay: ATP level analysis (Cell Titer-Glo); assay type: cell-based, Trypanosoma cruzi; settings: IC90 of compound, 24 h
Protocol: as §5

[9] = tested on: L. amazonensis promastigotes; assay: Mitochondrial membrane potential (JC-1 assay); assay type: cell-based, Leishmania amazonensis; settings: IC90, 24 h
Protocol: (§6) To study the mechanism of cell death induced in parasites by compounds isolated from Gongolaria abies-marina, a common step was carried out to perform the following five experiments. The promastigotes of Leishmania spp. and epimastigotes of T. cruzi were incubated at the IC90 levels of the compounds (previously calculated) for 24 h at 26 °C. After incubation, the parasites were centrifuged at 3000 rpm for 10 min at 4 °C. The pellets were resuspended following the manufacturer’s instructions for each kit. A JC-1 Mitochondrial Membrane Potential Assay Kit® (Cayman Chemical, Ann Arbor, MI, USA) was used to analyze variations in the mitochondrial membrane potential of the parasites after incubation at the IC90 levels of the compounds. After centrifugation, the parasites were resuspended in the same buffer and transferred to a black 96-well plate. JC-1 was added following the manufacturer’s instructions as also described by López-Arencibia et al. (2020). Green and red fluorescence was measured using an EnSpire® Multimode Plate Reader (PerkinElmer, Madrid, Spain).

[10] = tested on: L. donovani promastigotes; assay: Mitochondrial membrane potential (JC-1 assay); assay type: cell-based, Leishmania donovani; settings: IC90, 24 h
Protocol: as §6

T. cruzi epimastigotes [11] = assay: Mitochondrial membrane potential (JC-1 assay); assay type: cell-based, Trypanosoma cruzi; settings: IC90, 24 h
Protocol: as §6

In the case of `COc1c(C)cc(O)cc1C/C=C(\C)CC(=O)/C=C(\C)CCCC(C)=O` [Cystomexicone B (1), cystomexicone B], the “Selectivity index (CC50/IC50), L. amazonensis” value ([1]; CC50 in murine macrophages) is reported as greater than 7.61, the IC50 ([1]; Leishmania amazonensis, 72 h, Alamar Blue, read-out: Antikinetoplastid activity IC50, L. amazonensis) is reported as 36.6 ± 4.24 µM and the “Selectivity index (CC50/IC50), L. donovani” value ([2]; CC50 in murine macrophages) is reported as greater than 1.12. For the same compound, the IC50 ([2]; Leishmania donovani, 72 h, Alamar Blue, read-out: Antikinetoplastid activity IC50, L. donovani) was 248.3 ± 0.94 µM, the “Selectivity index (CC50/IC50), T. cruzi” value ([3]; CC50 in murine macrophages) was greater than 14.53 and the IC50 ([3]; Trypanosoma cruzi, 72 h, Alamar Blue, read-out: Antikinetoplastid activity IC50, T. cruzi) was 19.2 ± 2.62 µM. The CC50 at 24 h [4] was greater than 279 µM, the “Selectivity index (CC50/IC50), amastigotes of L. amazonensis” value ([5]; CC50 in murine macrophages) was greater than 11.36 and the IC50 ([5]; Leishmania amazonensis, J774.A1, intracellular amastigotes in J774A.1 macrophages, 24 h treatment) was 24.6 ± 0.83 µM. The “ATP levels relative to negative control” value [6] was “significantly decreased”, the “ATP levels relative to negative control” value [7] was “significantly decreased” and the “ATP levels relative to negative control” value (T. cruzi epimastigotes [8]) was “significantly decreased”. For the same compound, the “ATP levels relative to negative control” value (T. cruzi epimastigotes [8]; listed as cystomexicone B (1)) was “most affected”, the “Mitochondrial membrane potential changes (JC-1)” value [9] was “does not produce significant changes” and the “Mitochondrial membrane potential changes (JC-1)” value [10] was “does not produce significant changes”. The “Mitochondrial membrane potential changes (JC-1)” value (T. cruzi epimastigotes [11]) was “does not produce significant changes”.
